{"source": "the CheMixHub viscosity set", "experiment": "xn = mol fraction of the nth substance listed", "note": "± gives the uncertainty stated by the source."}
{"smiles": "CCCCCOC(C)=O", "note": "+ COc1ccccc1", "values": [{"measurement": "viscosity", "setting": "298.15 K, 101 kPa, x2 = 0.5", "value": "0.8265 ± 0.0082", "unit": "mPa·s"}]}
{"smiles": "CC(C)CO", "note": "+ CCO", "values": [{"measurement": "viscosity", "setting": "308.15 K, 101 kPa, x2 = 0.5", "value": "1.598 ± 0.034", "unit": "mPa·s"}, {"measurement": "viscosity", "setting": "313.15 K, 101 kPa, x2 = 0.5", "value": "1.479 ± 0.032", "unit": "mPa·s"}, {"measurement": "viscosity", "setting": "318.15 K, 101 kPa, x2 = 0.5", "value": "1.308 ± 0.028", "unit": "mPa·s"}]}
{"smiles": "C=CC(=O)OCCCC", "note": "+ CCCCCCCO", "values": [{"measurement": "viscosity", "setting": "298.15 K, 101.3 kPa, x1 = 0.0538", "value": "4.656 ± 0.41", "unit": "mPa·s"}, {"measurement": "viscosity", "setting": "298.15 K, 101.3 kPa, x1 = 0.1451", "value": "3.548 ± 0.31", "unit": "mPa·s"}, {"measurement": "viscosity", "setting": "298.15 K, 101.3 kPa, x1 = 0.1979", "value": "3.084 ± 0.28", "unit": "mPa·s"}, {"measurement": "viscosity", "setting": "298.15 K, 101.3 kPa, x1 = 0.2976", "value": "2.394 ± 0.22", "unit": "mPa·s"}, {"measurement": "viscosity", "setting": "298.15 K, 101.3 kPa, x1 = 0.5964", "value": "1.35 ± 0.13", "unit": "mPa·s"}, {"measurement": "viscosity", "setting": "298.15 K, 101.3 kPa, x1 = 0.6984", "value": "1.12 ± 0.11", "unit": "mPa·s"}, {"measurement": "viscosity", "setting": "298.15 K, 101.3 kPa, x1 = 0.7966", "value": "0.981 ± 0.097", "unit": "mPa·s"}, {"measurement": "viscosity", "setting": "298.15 K, 101.3 kPa, x1 = 0.8968", "value": "0.869 ± 0.088", "unit": "mPa·s"}, {"measurement": "viscosity", "setting": "298.15 K, 101.3 kPa, x1 = 0.9498", "value": "0.824 ± 0.084", "unit": "mPa·s"}, {"measurement": "viscosity", "setting": "308.15 K, 101.3 kPa, x1 = 0.0538", "value": "3.481 ± 0.31", "unit": "mPa·s"}, {"measurement": "viscosity", "setting": "308.15 K, 101.3 kPa, x1 = 0.1451", "value": "2.761 ± 0.25", "unit": "mPa·s"}, {"measurement": "viscosity", "setting": "308.15 K, 101.3 kPa, x1 = 0.1979", "value": "2.398 ± 0.22", "unit": "mPa·s"}, {"measurement": "viscosity", "setting": "308.15 K, 101.3 kPa, x1 = 0.2976", "value": "1.922 ± 0.18", "unit": "mPa·s"}, {"measurement": "viscosity", "setting": "308.15 K, 101.3 kPa, x1 = 0.5964", "value": "1.084 ± 0.11", "unit": "mPa·s"}, {"measurement": "viscosity", "setting": "308.15 K, 101.3 kPa, x1 = 0.6984", "value": "0.925 ± 0.092", "unit": "mPa·s"}, {"measurement": "viscosity", "setting": "308.15 K, 101.3 kPa, x1 = 0.7966", "value": "0.836 ± 0.085", "unit": "mPa·s"}, {"measurement": "viscosity", "setting": "308.15 K, 101.3 kPa, x1 = 0.8968", "value": "0.736 ± 0.076", "unit": "mPa·s"}, {"measurement": "viscosity", "setting": "308.15 K, 101.3 kPa, x1 = 0.9498", "value": "0.705 ± 0.073", "unit": "mPa·s"}]}
{"smiles": "C=CC(=O)OC", "note": "+ CCCCCCCCCCO", "values": [{"measurement": "viscosity", "setting": "298.15 K, 101.3 kPa, x1 = 0.1056", "value": "7.732 ± 0.3", "unit": "mPa·s"}, {"measurement": "viscosity", "setting": "298.15 K, 101.3 kPa, x1 = 0.2709", "value": "4.826 ± 0.21", "unit": "mPa·s"}, {"measurement": "viscosity", "setting": "298.15 K, 101.3 kPa, x1 = 0.3442", "value": "3.593 ± 0.16", "unit": "mPa·s"}, {"measurement": "viscosity", "setting": "298.15 K, 101.3 kPa, x1 = 0.4717", "value": "2.331 ± 0.11", "unit": "mPa·s"}, {"measurement": "viscosity", "setting": "298.15 K, 101.3 kPa, x1 = 0.5843", "value": "1.712 ± 0.08", "unit": "mPa·s"}, {"measurement": "viscosity", "setting": "298.15 K, 101.3 kPa, x1 = 0.7574", "value": "0.938 ± 0.047", "unit": "mPa·s"}, {"measurement": "viscosity", "setting": "298.15 K, 101.3 kPa, x1 = 0.8309", "value": "0.738 ± 0.038", "unit": "mPa·s"}, {"measurement": "viscosity", "setting": "298.15 K, 101.3 kPa, x1 = 0.8923", "value": "0.639 ± 0.034", "unit": "mPa·s"}, {"measurement": "viscosity", "setting": "298.15 K, 101.3 kPa, x1 = 0.9483", "value": "0.519 ± 0.029", "unit": "mPa·s"}, {"measurement": "viscosity", "setting": "298.15 K, 101.3 kPa, x1 = 0.9749", "value": "0.482 ± 0.027", "unit": "mPa·s"}, {"measurement": "viscosity", "setting": "308.15 K, 101.3 kPa, x1 = 0.1056", "value": "5.659 ± 0.24", "unit": "mPa·s"}, {"measurement": "viscosity", "setting": "308.15 K, 101.3 kPa, x1 = 0.2709", "value": "3.531 ± 0.16", "unit": "mPa·s"}, {"measurement": "viscosity", "setting": "308.15 K, 101.3 kPa, x1 = 0.3442", "value": "2.828 ± 0.13", "unit": "mPa·s"}, {"measurement": "viscosity", "setting": "308.15 K, 101.3 kPa, x1 = 0.4717", "value": "1.792 ± 0.084", "unit": "mPa·s"}, {"measurement": "viscosity", "setting": "308.15 K, 101.3 kPa, x1 = 0.5843", "value": "1.425 ± 0.068", "unit": "mPa·s"}, {"measurement": "viscosity", "setting": "308.15 K, 101.3 kPa, x1 = 0.7574", "value": "0.804 ± 0.041", "unit": "mPa·s"}, {"measurement": "viscosity", "setting": "308.15 K, 101.3 kPa, x1 = 0.8309", "value": "0.641 ± 0.034", "unit": "mPa·s"}, {"measurement": "viscosity", "setting": "308.15 K, 101.3 kPa, x1 = 0.8923", "value": "0.54 ± 0.03", "unit": "mPa·s"}, {"measurement": "viscosity", "setting": "308.15 K, 101.3 kPa, x1 = 0.9483", "value": "0.459 ± 0.026", "unit": "mPa·s"}, {"measurement": "viscosity", "setting": "308.15 K, 101.3 kPa, x1 = 0.9749", "value": "0.432 ± 0.025", "unit": "mPa·s"}]}
{"smiles": "C=CC(=O)OC", "note": "+ c1ccccc1", "values": [{"measurement": "viscosity", "setting": "298.15 K, 101 kPa, x2 = 0.105", "value": "0.472 ± 0.008", "unit": "mPa·s"}, {"measurement": "viscosity", "setting": "298.15 K, 101 kPa, x2 = 0.2191", "value": "0.485 ± 0.008", "unit": "mPa·s"}, {"measurement": "viscosity", "setting": "298.15 K, 101 kPa, x2 = 0.3452", "value": "0.501 ± 0.008", "unit": "mPa·s"}, {"measurement": "viscosity", "setting": "298.15 K, 101 kPa, x2 = 0.4069", "value": "0.509 ± 0.008", "unit": "mPa·s"}, {"measurement": "viscosity", "setting": "298.15 K, 101 kPa, x2 = 0.5314", "value": "0.526 ± 0.008", "unit": "mPa·s"}, {"measurement": "viscosity", "setting": "298.15 K, 101 kPa, x2 = 0.6457", "value": "0.543 ± 0.008", "unit": "mPa·s"}, {"measurement": "viscosity", "setting": "298.15 K, 101 kPa, x2 = 0.714", "value": "0.554 ± 0.008", "unit": "mPa·s"}, {"measurement": "viscosity", "setting": "298.15 K, 101 kPa, x2 = 0.7852", "value": "0.565 ± 0.009", "unit": "mPa·s"}, {"measurement": "viscosity", "setting": "298.15 K, 101 kPa, x2 = 0.8977", "value": "0.585 ± 0.009", "unit": "mPa·s"}, {"measurement": "viscosity", "setting": "303.15 K, 101 kPa, x2 = 0.105", "value": "0.433 ± 0.007", "unit": "mPa·s"}, {"measurement": "viscosity", "setting": "303.15 K, 101 kPa, x2 = 0.2191", "value": "0.447 ± 0.007", "unit": "mPa·s"}, {"measurement": "viscosity", "setting": "303.15 K, 101 kPa, x2 = 0.3452", "value": "0.462 ± 0.008", "unit": "mPa·s"}, {"measurement": "viscosity", "setting": "303.15 K, 101 kPa, x2 = 0.4069", "value": "0.47 ± 0.008", "unit": "mPa·s"}, {"measurement": "viscosity", "setting": "303.15 K, 101 kPa, x2 = 0.5314", "value": "0.488 ± 0.008", "unit": "mPa·s"}, {"measurement": "viscosity", "setting": "303.15 K, 101 kPa, x2 = 0.6457", "value": "0.505 ± 0.008", "unit": "mPa·s"}, {"measurement": "viscosity", "setting": "303.15 K, 101 kPa, x2 = 0.714", "value": "0.515 ± 0.008", "unit": "mPa·s"}, {"measurement": "viscosity", "setting": "303.15 K, 101 kPa, x2 = 0.7852", "value": "0.526 ± 0.008", "unit": "mPa·s"}, {"measurement": "viscosity", "setting": "303.15 K, 101 kPa, x2 = 0.8977", "value": "0.545 ± 0.008", "unit": "mPa·s"}, {"measurement": "viscosity", "setting": "308.15 K, 101 kPa, x2 = 0.105", "value": "0.398 ± 0.007", "unit": "mPa·s"}, {"measurement": "viscosity", "setting": "308.15 K, 101 kPa, x2 = 0.2191", "value": "0.412 ± 0.007", "unit": "mPa·s"}, {"measurement": "viscosity", "setting": "308.15 K, 101 kPa, x2 = 0.3452", "value": "0.428 ± 0.007", "unit": "mPa·s"}, {"measurement": "viscosity", "setting": "308.15 K, 101 kPa, x2 = 0.4069", "value": "0.436 ± 0.007", "unit": "mPa·s"}, {"measurement": "viscosity", "setting": "308.15 K, 101 kPa, x2 = 0.5314", "value": "0.453 ± 0.007", "unit": "mPa·s"}, {"measurement": "viscosity", "setting": "308.15 K, 101 kPa, x2 = 0.6457", "value": "0.47 ± 0.008", "unit": "mPa·s"}, {"measurement": "viscosity", "setting": "308.15 K, 101 kPa, x2 = 0.714", "value": "0.481 ± 0.008", "unit": "mPa·s"}, {"measurement": "viscosity", "setting": "308.15 K, 101 kPa, x2 = 0.7852", "value": "0.492 ± 0.008", "unit": "mPa·s"}, {"measurement": "viscosity", "setting": "308.15 K, 101 kPa, x2 = 0.8977", "value": "0.51 ± 0.008", "unit": "mPa·s"}, {"measurement": "viscosity", "setting": "313.15 K, 101 kPa, x2 = 0.105", "value": "0.369 ± 0.007", "unit": "mPa·s"}, {"measurement": "viscosity", "setting": "313.15 K, 101 kPa, x2 = 0.2191", "value": "0.382 ± 0.007", "unit": "mPa·s"}, {"measurement": "viscosity", "setting": "313.15 K, 101 kPa, x2 = 0.3452", "value": "0.392 ± 0.007", "unit": "mPa·s"}, {"measurement": "viscosity", "setting": "313.15 K, 101 kPa, x2 = 0.4069", "value": "0.403 ± 0.007", "unit": "mPa·s"}, {"measurement": "viscosity", "setting": "313.15 K, 101 kPa, x2 = 0.5314", "value": "0.418 ± 0.007", "unit": "mPa·s"}, {"measurement": "viscosity", "setting": "313.15 K, 101 kPa, x2 = 0.6457", "value": "0.433 ± 0.007", "unit": "mPa·s"}, {"measurement": "viscosity", "setting": "313.15 K, 101 kPa, x2 = 0.714", "value": "0.442 ± 0.007", "unit": "mPa·s"}, {"measurement": "viscosity", "setting": "313.15 K, 101 kPa, x2 = 0.7852", "value": "0.452 ± 0.007", "unit": "mPa·s"}, {"measurement": "viscosity", "setting": "313.15 K, 101 kPa, x2 = 0.8977", "value": "0.467 ± 0.008", "unit": "mPa·s"}]}
